Measured values published in US11655241B2, “Heterocyclic compound and use thereof” (Takeda Pharmaceutical Company Limited, priority 2018, dated 2023).

Target: T1, human orexin type 2 receptor (Homo sapiens, UniProt O43614)
T1 construct: expressed in transfected cells
T1 sequence (O43614 1-444): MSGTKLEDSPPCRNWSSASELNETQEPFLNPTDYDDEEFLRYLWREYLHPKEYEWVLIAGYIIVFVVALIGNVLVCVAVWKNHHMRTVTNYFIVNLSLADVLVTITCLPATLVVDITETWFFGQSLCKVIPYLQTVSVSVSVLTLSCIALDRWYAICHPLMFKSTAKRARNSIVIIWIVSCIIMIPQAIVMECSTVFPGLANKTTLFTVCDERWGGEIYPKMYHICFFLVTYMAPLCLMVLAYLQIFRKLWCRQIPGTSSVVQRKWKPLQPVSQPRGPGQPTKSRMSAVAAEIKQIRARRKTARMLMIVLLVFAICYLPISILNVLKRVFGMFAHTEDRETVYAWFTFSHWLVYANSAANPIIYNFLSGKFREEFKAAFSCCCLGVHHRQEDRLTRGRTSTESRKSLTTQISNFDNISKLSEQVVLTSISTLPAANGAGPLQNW
Experiment: Measurement of orexin type 2 receptor agonist activity (calcium fluorescence, Fluo-4 AM, FDSS)
Assay type: cell-based
Conditions: compound at 3 μM; CHO cells forcibly expressing human OX2 receptor; DMSO = 0%, orexin A (human) 10 nM = 100%
Text: Experimental Example 1: Obtainment of Cell Stably Expressing Human Orexin Type 2 Receptor (hOX2R)
To obtain a cell clone stably expressing human orexin type 2 receptor, human orexin type 2 receptor cDNA was inserted into pcDNA3.1(+) plasmid vector (Invitrogen), and a plasmid DNA for expression of human orexin type 2 receptor (pcDNA3.1(+)/hOX2R) was cloned. The plasmid DNA was introduced into CHO-dhfr cell by an electroporation method, and human orexin type 2 receptor expressing clone cells were obtained by limiting dilution method by using G418 drug resistance as a selection marker.
Experimental Example 2: Measurement of Orexin Type 2 Receptor Agonist Activity
CHO cells forcibly expressing human OX2 receptor were seeded in each well of 384 well black transparent bottom plate (BD Falcon) at 7,500 cells/well, and cultured for one day in a 5% CO2 incubator at 37° C. After removal of the medium in the cell plate, assay buffer A containing a calcium indicator (HBSS (Thermo Fisher Scientific), 20 mM HEPES (Thermo Fisher Scientific), 0.1% BSA (Wako Pure Chemical Industries, Ltd. or Sigma-Aldrich), 2.5 μg/mL Fluo-4 AM (DOJINDO Chemical), 0.08% Pluronic F127 (DOJINDO Chemical), 1.25 mM probenecid (DOJINDO Chemical)) was added at 30 μL/well. The plate was stood for 30 min in a 5% CO2 incubator at 37° C., and further stood at room temperature for 30 min. A test compound prepared by diluting with assay buffer B (HBSS, 20 mM HEPES, 0.1% BSA) was added at 10 μL/well, and the fluorescence value was measured by FDSSμCELL (Hamamatsu Photonics K.K.) every one sec for 1 min, and thereafter every two sec for 1 min 40 sec. The activity (%) of the test compound was calculated assuming that variation in the fluorescence value when DMSO was added instead of the test compound was 0%, and variation in the fluorescence value when orexin A (human) (PEPTIDE INSTITUTE, INC.) was added at the final concentration of 10 nM was 100%. The activity of each compound at the concentration of 3 μM was shown below.

OX2R agonist activity (3 μM, %) [%]	Compound
86	CN(C)C(=O)C(=O)N[C@H]1CCN(C(=O)C2(C#N)CCC2)[C@H]1Cc1cccc(-c2cccc(F)c2)c1 [Example 36, N^~2^~-((2S,3S)-1-(1-cyanocyclobutane-1-carbonyl)-2-[(3′-flluoro[1,1′-biphenyl]-3-yl)methyl]pyrrolidin-3-yl]-N^~1^~,N^~1^~- dimethylethanediamide]
33	COC(=O)N[C@H]1CCN(C(=O)C2CCC2)[C@H]1Cc1cccc(-c2cccc(F)c2)c1 (relative stereo) [Example 1, methyl{cis-1-(cyclobutanecarbonyl)-2-[(3′-fluoro[1,1′-biphenyl]-3-yl)methyl]pyrrolidin-3-yl}carbamate]
75	CN(C)C(=O)C(=O)N[C@H]1CCN(C(=O)C2(F)CCC2)[C@H]1Cc1cccc(-c2cccc(F)c2)c1 [Example 35, N^~2^~-[(2S,3S)-2-[(3′-fluoro[1,1′-biphenyl]-3-yl)methyl]-1-(1-fluorocyclobutane-1-carbonyl)pyrrolidin-3-yl]-N^~1^~,N^~1^~- dimethylethanediamide]
95	CN(C)C(=O)C(=O)NC1CCN(C(=O)C2CCC2)C1Cc1cccc(-c2cccc(F)c2)c1 (stereo not drawn) [Example 4, N^~2^~-{cis-1-(cyclobutanecarbonyl)-2-[(3′-fluoro[1,1′-biphenyl]-3-yl)methyl]pyrrolidin-3-yl}-N^~1^~,N^~1^~- dimethylethanediamide]
62	O=C(N[C@H]1CCN(C(=O)C2(F)CCC2)[C@H]1Cc1cccc(-c2cccc(F)c2)c1)[C@@H]1CCCO1 [Example 43, (2S)-N-[(2S,3S)-2-[(3′-fluoro[1,1′-biphenyl]-3-yl)methyl]-1-(1-fluorocyclobutane-1-carbonyl)pyrrolidin-3-yl]oxolane-2-carboxamide]
86	O=C(N[C@H]1CCN(C(=O)C2(O)CCC2)[C@H]1Cc1cccc(-c2cccc(F)c2)c1)[C@@H]1CCCO1 [Example 45]
